Values quoted from earlier work in patent US20240050950A1, “GRADIENT-BASED MICROFLUIDIC CIRCUIT, DEVICE, AND METHOD FOR PERFORMING AN ASSAY” (priority 2020, published 2024).
Structures can show the parent of a compound that is named as a salt. Where two headings read alike, the source gives them in different places. Square brackets hold non-standard residues; d marks the D form. Peptide text beside a SMILES is read from it. Phe(ol) = N[C@H](CO)Cc1ccccc1; Aib = CC(C)(N)C(=O)O

Details: cited from earlier work
[1] = Table 1, antimicrobial agents/drugs
[2] = Table 3, antifungal drugs and other molecules

## Cn1cc(NC(=O)c2cc(NC(=O)CN=C(N)N)cn2C)cc1C(=O)NCCC(=N)N [Netropsin (Congocidin, Sinanomycin), Netropsin]
[1]
  Molar volume: 282.7 ± 7.0 cm^3

## Cinnamycin
[2]
  Molar volume: 1281.0 ± 7.0 cm^3

## COc1ccc(C[C@H]2NC[C@H](O)[C@H]2OC(C)=O)cc1 [Anisomycin (or, Flagecidin), Anisomycin]
[1]
  Molar volume: 218.6 ± 5.0 cm^3

## C=C(c1ccc(C(=O)O)cc1)c1cc2c(cc1C)C(C)(C)CCC2(C)C [Bexarotene (Targretin), Bexarotene]
Table 2, anticancer drugs
  Molar volume: 334.2 ± 3.0 cm^3

## COc1cc2c(oc(=O)c3cc(C)cc(OC)c32)c2c([C@@H]3O[C@H](C)[C@H](O)[C@@](C)(O)[C@H]3O)ccc(O)c12 [Chrysomycin B (MFCD07370132), Chrysomycin B]
[1]
  Molar volume: 352.0 ± 3.0 cm^3

## COc1c(N2CCNC(C)C2)c(F)cc2c(=O)c(C(=O)O)cn(C3CC3)c12 (centres unmarked) [Gatifloxacin]
[1]
  Molar volume: 270.7 ± 3.0 cm^3

## C/C=C(\C)C(=O)N[C@@H](c1ccccc1)[C@@H](O)C(=O)O[C@H]1C[C@@]2(O)[C@@H](OC(=O)c3ccccc3)[C@@H]3[C@]4(OC(C)=O)CO[C@@H]4C[C@H](O)[C@@]3(C)C(=O)[C@H](OC(C)=O)C(=C1C)C2(C)C [Cephalomannine (NSC 318735), Cephalomannine]
[1]
  Molar volume: 609.9 ± 5.0 cm^3

## Nc1ccn([C@@H]2O[C@H](CO)[C@@H](O)C2(F)F)c(=O)n1 [Gemcitabine Hydrochloride]
Table 2, anticancer drugs
  Molar volume: 142.3 ± 7.0 cm^3

## CO[C@H]1C[C@@H]2CC[C@@H](C)[C@@](O)(O2)C(=O)C(=O)N2CCCC[C@H]2C(=O)O[C@H]([C@H](C)C[C@@H]2CC[C@@H](OC(=O)C(C)(CO)CO)[C@H](OC)C2)CC(=O)[C@H](C)/C=C(\C)[C@@H](O)[C@@H](OC)C(=O)[C@H](C)C[C@H](C)/C=C/C=C/C=C/1C [Temsirolimus (Torisel), Temsirolimus]
Table 2, anticancer drugs
  Molar volume: 853.1 ± 5.0 cm^3

## C[C@]12CC[C@@H]3c4ccc(O)cc4C[C@@H](CCCCCCCCC[S+]([O-])CCCC(F)(F)C(F)(F)F)[C@H]3[C@@H]1CC[C@@H]2O (some centres unmarked) [Faslodex (Fulvestrant), Fulvestrant]
Table 2, anticancer drugs
  Molar volume: 505.1 ± 3.0 cm^3

## CC(C)NCC(O)COc1cccc2ccccc12 (centres unmarked) [Hemangeol (Propranolol Hydrochloride), Propranolol Hydrochloride]
Table 2, anticancer drugs
  Molar volume: 237.1 ± 3.0 cm^3

## CO[C@H]1/C=C/O[C@@]2(C)Oc3c(C)c(O)c4c(O)c(c(/C=N/N5CCN(C6CCCC6)CC5)c(O)c4c3C2=O)NC(=O)/C(C)=C\C=C\[C@H](C)[C@H](O)[C@@H](C)[C@@H](O)[C@@H](C)[C@H](OC(C)=O)[C@@H]1C [Rifapentine (DL 473), Rifapentine]
[1]
  Molar volume: 648.0 ± 7.0 cm^3

## CC(C)C[C@H](NC(=O)[C@H](Cc1ccccc1)NC(=O)c1cnccn1)B(O)O [Bortezomib (Velcade), Bortezomib]
Table 2, anticancer drugs
  Molar volume: 316.5 ± 3.0 cm^3

## CCOc1ccc2ccccc2c1C(=O)N[C@@H]1C(=O)N2[C@@H]1SC(C)(C)[C@@H]2C(=O)O [Nafcillin]
[1]
  Molar volume: 289.8 ± 5.0 cm^3

## CO[C@@H]1[C@@H](O[C@@H]2O[C@H](C)[C@@H](O[C@H]3C[C@@](C)(O)[C@@H](OC(=O)CC(C)C)[C@H](C)O3)[C@H](N(C)C)[C@H]2O)[C@@H](CC=O)C[C@@H](C)[C@@H](O)/C=C/C=C/C[C@@H](C)OC(=O)C[C@H]1OC(C)=O [Josamycin]
[1]
  Molar volume: 684.5 ± 5.0 cm^3

## COc1cc([C@@H]2c3cc4c(cc3[C@@H](O[C@@H]3O[C@@H]5CO[C@@H](C)O[C@H]5[C@H](O)[C@H]3O)[C@H]3COC(=O)[C@H]23)OCO4)cc(OC)c1O [Etoposide]
[1]
  Molar volume: 378.5 ± 5.0 cm^3

## CN[C@@H]1C[C@H]2O[C@@](C)([C@@H]1OC)n1c3ccccc3c3c4c(c5c6ccccc6n2c5c31)C(=O)NC4 [Staurosporine (Staurosporine), Staurosporine]
[1]
  Molar volume: 298.7 ± 7.0 cm^3

## Nc1nc(=O)c2c([nH]1)NCC(CNc1ccc(C(=O)N[C@@H](CCC(=O)[O-])C(=O)[O-])cc1)N2C=O.[Ca+2] (some centres unmarked) [Fusilev (Leucovorin Calcium), Leucovorin Calcium]
Table 2, anticancer drugs
  Molar volume: 280.7 ± 7.0 cm^3

## CC[C@H](Nc1ncnc2[nH]cnc12)c1nc2cccc(F)c2c(=O)n1-c1ccccc1 [Idelalisib (Zydelig), Idelalisib]
Table 2, anticancer drugs
  Molar volume: 282.2 ± 7.0 cm^3

## Nc1nc(O)c2ncn(COC(CO)CO)c2n1 [Ganciclovir]
[1]
  Molar volume: 140.5 ± 7.0 cm^3

## CN1C(=O)[C@]23CC4=CC=C[C@H](O)[C@H]4N2C(=O)[C@@]1(CO)SS3 [Gliotoxin]
[1]
  Molar volume: 186.5 ± 5.0 cm^3

## Oc1c(Cl)cc(Cl)cc1Sc1cc(Cl)cc(Cl)c1O [Bithionol]
[1]
  Molar volume: 202.7 ± 5.0 cm^3

## C/C=C/C=C/C(=O)O [Sorbic acid]
[1]
  Molar volume: 109.4 ± 3.0 cm^3

## C/C=C/C/C=C/CCC(=O)[C@H]1O[C@H]1C(N)=O [Cerulenin]
[1]
  Molar volume: 196.7 ± 3.0 cm^3

## Nc1cccc2c1C(=O)N(C1CCC(=O)NC1=O)C2=O (centres unmarked) [Pomalidomide]
Table 2, anticancer drugs
  Molar volume: 173.9 ± 3.0 cm^3

## CC(=O)NC(C)(C)C(=O)N1CCC[C@H]1C(=O)NC(C)(C)C(=O)N[C@@H](C)C(=O)NC(C)(C)C(=O)N[C@@H](C)C(=O)N[C@@H](CCC(N)=O)C(=O)NC(C)(C)C(=O)N[C@H](C(=O)NC(C)(C)C(=O)NCC(=O)N[C@@H](CC(C)C)C(=O)NC(C)(C)C(=O)N1CCC[C@H]1C(=O)N[C@H](C(=O)NC(C)(C)C(=O)NC(C)(C)C(=O)N[C@@H](CCC(=O)O)C(=O)N[C@@H](CCC(N)=O)C(=O)N[C@H](CO)Cc1ccccc1)C(C)C)C(C)C [Alamethicin] (Ac-[Aib]P[Aib]A[Aib]AQ[Aib]V[Aib]GL[Aib]PV[Aib][Aib]EQ[Phe(ol)])
[1]
  Molar volume: 1583.4 ± 3.0 cm^3

## COc1cc2c(cc1O)CCN[C@]21CS[C@@H]2c3c(OC(C)=O)c(C)c4c(c3[C@H](COC1=O)N1[C@@H]2[C@H]2c3c(cc(C)c(OC)c3O)C[C@@H]([C@@H]1O)N2C)OCO4 [Trabectedin (Yondelis), Trabectedin]
Table 2, anticancer drugs
  Molar volume: 489.2 ± 5.0 cm^3

## C[C@@H](CN1CC(=O)NC(=O)C1)N1CC(=O)NC(=O)C1 [Dexrazoxane Hydrochloride]
Table 2, anticancer drugs
  Molar volume: 201.2 ± 3.0 cm^3

## Nc1nc2[nH]cc(CCc3ccc(C(=O)N[C@@H](CCC(=O)O)C(=O)O)cc3)c2c(=O)[nH]1 [Alimta (Pemetrexed Disodium), Pemetrexed Disodium]
Table 2, anticancer drugs
  Molar volume: 268.0 ± 7.0 cm^3

## CC(C)C[C@H](NC(=O)[C@@H](O)[C@H](N)Cc1ccccc1)C(=O)O [Bestatin (Ubenimex), Bestatin]
[1]
  Molar volume: 257.5 ± 3.0 cm^3

## C=C1[C@@H](C)[C@H]2[C@H](Cc3ccccc3)NC(=O)[C@]23OC(=O)/C=C/[C@H](O)CCC[C@@H](C)C/C=C/[C@H]3[C@@H]1O [Cytochalasin B (Phomin), Cytochalasin B]
[1]
  Molar volume: 396.8 ± 5.0 cm^3

## CC(=O)O[C@@]12CO[C@@H]1C[C@H](O)[C@@]1(C)C(=O)[C@H](O)C3=C(C)[C@@H](O)C[C@@](O)([C@@H](OC(=O)c4ccccc4)[C@H]21)C3(C)C [10-Deacetylbaccatin III]
[1]
  Molar volume: 385.5 ± 5.0 cm^3

## O=[N+]([O-])C1(Br)COCOC1 [5-Bromo-5-nitro-1,3-dioxane]
[2]
  Molar volume: 115.3 ± 5.0 cm^3

## CN(C/C=C/c1ccccc1)Cc1cccc2ccccc12 [Naftifine]
[1]
  Molar volume: 265.4 ± 3.0 cm^3

## C=CCNC1=C2C[C@@H](C)C[C@H](OC)[C@H](O)[C@@H](C)/C=C(\C)[C@H](OC(N)=O)[C@@H](OC)/C=C\C=C(/C)C(=O)NC(=CC1=O)C2=O [17-(Allylamino)-17-demethoxygeldanamycin]
[1]
  Molar volume: 483.3 ± 5.0 cm^3

## CCCCC[C@H](CC(=O)NO)C(=O)N[C@H](C(=O)N1CCC[C@H]1CO)C(C)C [Actinonin]
[1]
  Molar volume: 338.1 ± 3.0 cm^3

## CCCCC[C@@H](O)[C@H]1C(=O)O[C@H](C)[C@@H](O)/C=C/C=C/C=C/C=C/C=C(\C)[C@@H](O)C[C@H](O)C[C@H](O)C[C@H](O)C[C@H](O)C[C@H](O)C[C@@H]1O [Filipin]
[2]
  Molar volume: 563.7 ± 3.0 cm^3

## c1ccc([C@H]2CN3CCSC3=N2)cc1 [Levamisol (Levamisole), Levamisole]
[1]
  Molar volume: 154.1 ± 7.0 cm^3

## CC(C)C[C@H](NC(=O)[C@@H](COC(C)(C)C)NC(=O)[C@H](Cc1ccc(O)cc1)NC(=O)[C@H](CO)NC(=O)[C@H](Cc1c[nH]c2ccccc12)NC(=O)[C@H](Cc1cnc[nH]1)NC(=O)[C@@H]1CCC(=O)N1)C(=O)N[C@@H](CCCNC(=N)N)C(=O)N1CCC[C@H]1C(=O)NNC(N)=O [Goserelin Acetate (Zoladex), Goserelin Acetate]
Table 2, anticancer drugs
  Molar volume: 844.7 ± 7.0 cm^3

## CN(C)[C@@H]1C(O)=C(C(N)=O)C(=O)[C@@]2(O)C(O)=C3C(=O)c4c(O)ccc(Cl)c4[C@@H](O)[C@H]3C[C@@H]12 [Demeclocycline]
[1]
  Molar volume: 265.1 ± 5.0 cm^3

## Epoetin Alfa
Table 2, anticancer drugs
  Molar volume: 665.6 ± 5.0 cm^3

## C[C@@H]1[C@H](O)[C@@H](C)/C=C/C=C/CC/C=C/C=C/C=C/C=C/C(O[C@H]2O[C@H](C)[C@@H](O)[C@H](N)[C@@H]2O)CC2O[C@](O)(CC(O)C(O)CCC(O)CC(O)CC(O)CC(=O)O[C@H]1C)CC(O)C2C(=O)O (some centres unmarked) [Nystatin (Fungicidin, Mycostatin), Nystatin]
[1]
  Molar volume: 696.1 ± 5.0 cm^3

## C=CCc1ccc(O)c(-c2cc(CC=C)ccc2O)c1 [5,5′-Diallyl-2,2′-biphenyldiol]
[2]
  Molar volume: 240.4 ± 3.0 cm^3

## Cc1ccc(C(=O)N2CCN(c3ccc([N+](=O)[O-])cc3)CC2)cc1Cl [Filastatin]
[2]
  Molar volume: 269.8 ± 3.0 cm^3

## N#Cc1ccnc(N2C(=O)CC[C@H]2C(=O)N(c2cncc(F)c2)[C@H](C(=O)NC2CC(F)(F)C2)c2ccccc2Cl)c1 [Ivosidenib (Tibsovo), Ivosidenib]
Table 2, anticancer drugs
  Molar volume: 383.5 ± 5.0 cm^3

## Oc1cc(Cl)ccc1Oc1ccc(Cl)cc1Cl [Irgasan]
[1]
  Molar volume: 194.3 ± 3.0 cm^3

B1: Neocarzinostatin (protein, UniProt P0A3R9 35-147, looked up)
Neocarzinostatin: AAPTATVTPSSGLSDGTVVKVAGAGLQAGTAYDVGQCAWVDTGVLACNPADFSSVTADANGSASTSLTVRRSFEGFLFDGTRWGTVDCTTAACQVGLSDAAGNGPEGVAISFN
modifications: enediyne chromophore
[1]
  Molar volume: 434.9 ± 5.0 cm^3
